Test results taken from patent publication US7074789B2, “Kinase inhibitors” (Amgen Inc., priority 1999, dated 2006).
Where two headings read alike, the source gives them in different places.

Assays:
Assay type in all cases: biochemical
Lck = molecular target: T1, Lck (Homo sapiens, UniProt P06239); experiment: Kinase inhibition assay (33P transfer), Lck; conditions: read-out: Lck-1
T1 construct: Kinases are expressed as either kinase domains or full length constructs; made in house
How it was run: (§1)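 Recombinant kinase-domain or full-length fusion proteins (GST or His tag) served as enzyme. Substrate poly(Glu,Tyr) 4:1 or poly(Arg,Ser) 3:1 was bound to the plate; transferred 33P was read by liquid scintillation following acid washing.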

Lyn = molecular target: T2, Lyn (Homo sapiens, UniProt P07948); experiment: Kinase inhibition assay (33P transfer), Lyn; conditions: Table 6, Lyn-1 kinase inhibition class
T2 construct: Kinases are expressed as either kinase domains or full length constructs; made in house
Description: (§2) The inhibitor compounds described herein are screened in the following manner. Kinases suitable for use in the following protocol to determine kinase activity of the compounds described herein include, -but are not limited to: Lck, Lyn, Src, Fyn, Syk, Zap-70, Itk, Tec, Btk, EGFR, ErbB2, Kdr, Flt-1, Flt-3, Tek, c-Met, InsR, and AKT.
(§3) Kinases are expressed as either kinase domains or full length constructs fused to glutathione S-transferase (GST) or polyHistidine tagged fusion proteins in either E. colior Baculovirus-High Five expression systems. They are purified to near homogeneity by affinity chromatography essentially as previously described (Lehr et al., 1996; Gish et al., 1995). In some instances, kinases are co-expressed or mixed with purified or partially purified regulatory polypeptides prior to measurement of activity.
(§4) Kinase activity and inhibition are measured essentially by established protocols (Braunwalder et al., 1996). Briefly, The transfer of ^33PO4 from ATP to the synthetic substrates poly(Glu, Tyr) 4:1 or poly(Arg, Ser) 3:1 attached to the bioactive surface of microtiter plates serves as the basis to evaluate enzyme activity. After an incubation period, the amount of phosphate transferred is measured by first washing the plate with 0.5% phosphoric acid, adding liquid scintillant, and then counting in a liquid scintillation detector. The IC50 is determined by the concentration of compound that causes a 50% reduction in the amount of […] incorporated onto the substrate bound to the plate.

Src = molecular target: T3, Src (Homo sapiens, UniProt P12931); experiment: Kinase inhibition assay (33P transfer), Src; conditions: Table 6, Src-1 kinase inhibition class
T3 construct: Kinases are expressed as either kinase domains or full length constructs; made in house
Description: as §2, §3, §4

Fyn = molecular target: T4, Fyn (Homo sapiens, UniProt P06241); experiment: Kinase inhibition assay (33P transfer), Fyn; conditions: read-out: Fyn-1
T4 construct: Kinases are expressed as either kinase domains or full length constructs; made in house
Description: as §2, §3, §4

Zap-70 = molecular target: T5, Zap-70 (Homo sapiens, UniProt P43403); experiment: Kinase inhibition assay (33P transfer), Zap-70; conditions: read-out: Zap-1
T5 construct: Kinases are expressed as either kinase domains or full length constructs; made in house
T5 sequence (P43403 1-619): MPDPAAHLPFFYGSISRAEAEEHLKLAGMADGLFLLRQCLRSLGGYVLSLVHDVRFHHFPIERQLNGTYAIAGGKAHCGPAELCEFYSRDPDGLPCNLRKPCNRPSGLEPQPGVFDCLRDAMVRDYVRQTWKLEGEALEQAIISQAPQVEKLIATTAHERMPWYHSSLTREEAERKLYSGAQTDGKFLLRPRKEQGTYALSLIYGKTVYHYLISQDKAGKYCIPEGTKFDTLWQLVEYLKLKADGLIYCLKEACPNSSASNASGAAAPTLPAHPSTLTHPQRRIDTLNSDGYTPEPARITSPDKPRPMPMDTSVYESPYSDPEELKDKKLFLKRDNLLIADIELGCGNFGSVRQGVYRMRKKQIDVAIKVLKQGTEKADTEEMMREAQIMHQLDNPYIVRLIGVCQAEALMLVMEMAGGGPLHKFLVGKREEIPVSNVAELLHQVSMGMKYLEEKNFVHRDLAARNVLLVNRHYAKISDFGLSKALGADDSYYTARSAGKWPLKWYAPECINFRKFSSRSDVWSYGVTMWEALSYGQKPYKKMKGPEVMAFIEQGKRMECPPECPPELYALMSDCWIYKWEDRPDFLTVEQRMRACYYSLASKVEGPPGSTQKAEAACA
How it was run: as §1

Itk = molecular target: T6, Itk (Homo sapiens, UniProt Q08881); experiment: Kinase inhibition assay (33P transfer), Itk; conditions: read-out: Itk-1
T6 construct: Kinases are expressed as either kinase domains or full length constructs; made in house
T6 sequence (Q08881 1-620): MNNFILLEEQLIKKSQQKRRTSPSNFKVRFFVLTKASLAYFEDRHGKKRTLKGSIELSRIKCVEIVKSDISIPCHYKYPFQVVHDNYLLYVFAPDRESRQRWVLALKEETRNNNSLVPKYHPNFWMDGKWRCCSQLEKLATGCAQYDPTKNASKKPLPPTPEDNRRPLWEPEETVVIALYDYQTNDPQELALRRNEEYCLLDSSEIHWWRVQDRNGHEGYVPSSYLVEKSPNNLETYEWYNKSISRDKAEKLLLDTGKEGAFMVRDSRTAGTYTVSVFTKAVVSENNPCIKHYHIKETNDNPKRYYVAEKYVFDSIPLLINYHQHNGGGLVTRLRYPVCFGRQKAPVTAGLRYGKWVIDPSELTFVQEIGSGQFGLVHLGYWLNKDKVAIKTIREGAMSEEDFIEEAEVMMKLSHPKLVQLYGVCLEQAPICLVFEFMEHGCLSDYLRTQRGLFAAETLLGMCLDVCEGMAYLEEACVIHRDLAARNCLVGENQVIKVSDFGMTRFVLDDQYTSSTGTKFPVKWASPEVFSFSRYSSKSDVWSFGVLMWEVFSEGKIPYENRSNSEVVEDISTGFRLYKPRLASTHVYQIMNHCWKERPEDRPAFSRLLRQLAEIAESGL
How it was run: (§5)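 Radiometric format: recombinant tagged kinase (catalytic domain or whole protein, sometimes combined with regulatory polypeptides) phosphorylates immobilised poly(Glu,Tyr) 4:1 or poly(Arg,Ser) 3:1 using [33P]ATP. Wells are washed in 0.5% phosphoric acid, then counted. IC50 is taken where substrate labelling falls by half.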

EGFR = molecular target: T7, EGFR (Homo sapiens, UniProt P00533); experiment: Kinase inhibition assay (33P transfer), EGFR; conditions: Table 2, kinase inhibition class; read-out: EGFR-1
T7 construct: Kinases are expressed as either kinase domains or full length constructs; made in house
How it was run: as §5

Kdr = molecular target: T8, Kdr (Homo sapiens, UniProt P35968); experiment: Kinase inhibition assay (33P transfer), Kdr; conditions: read-out: KDR-1
T8 construct: Kinases are expressed as either kinase domains or full length constructs; made in house
How it was run: as §1

Flt-1 = molecular target: T9, Flt-1 (Homo sapiens, UniProt P17948); experiment: Kinase inhibition assay (33P transfer), Flt-1
T9 construct: Kinases are expressed as either kinase domains or full length constructs; made in house
Description: as §2, §3, §4

Tek = molecular target: T10, Tek (Homo sapiens, UniProt Q02763); experiment: Kinase inhibition assay (33P transfer), Tek; conditions: read-out: Tek-1
T10 construct: Kinases are expressed as either kinase domains or full length constructs; made in house
How it was run: as §5

c-Met = molecular target: T11, c-Met (Homo sapiens, UniProt P08581); experiment: Kinase inhibition assay (33P transfer), c-Met; conditions: Table 2, kinase inhibition class; read-out: Met-1
T11 construct: Kinases are expressed as either kinase domains or full length constructs; made in house
How it was run: as §5

AKT = molecular target: T12, AKT (Homo sapiens, UniProt Q9Y243); experiment: Kinase inhibition assay (33P transfer), AKT; conditions: Table 2, kinase inhibition class; read-out: AKT3-1
T12 construct: Kinases are expressed as either kinase domains or full length constructs; made in house
How it was run: as §1

PDGFRB = molecular target: T13, PDGFRB (Homo sapiens, UniProt P09619); experiment: Kinase inhibition assay (33P transfer), PDGFRB; conditions: read-out: PDGFRB-1
T13 construct: Kinases are expressed as either kinase domains or full length constructs; made in house

Hck-1 = molecular target: T14, Hck-1 (Homo sapiens, UniProt P08631); experiment: Kinase inhibition assay (33P transfer), Hck; conditions: Table 6, Hck-1 kinase inhibition class
T14 construct: Kinases are expressed as either kinase domains or full length constructs; made in house

ErbB4 = molecular target: T15, ErbB4 (Homo sapiens, UniProt Q15303); experiment: Kinase inhibition assay (33P transfer), ErbB4; conditions: read-out: ErbB4-1
T15 construct: Kinases are expressed as either kinase domains or full length constructs; made in house

FGFR1 = molecular target: T16, FGFR1 (Homo sapiens, UniProt P11362); experiment: Kinase inhibition assay (33P transfer), FGFR1; conditions: read-out: FGFR1-1
T16 construct: Kinases are expressed as either kinase domains or full length constructs; made in house

ErbB2 = molecular target: T17, ErbB2 (Homo sapiens, UniProt P04626); experiment: Kinase inhibition assay (33P transfer), ErbB2; conditions: read-out: ErbB2-2
T17 construct: Kinases are expressed as either kinase domains or full length constructs; made in house
How it was run: as §5

IGFR-1 = molecular target: T18, IGFR-1 (Homo sapiens, UniProt P08069); experiment: Kinase inhibition assay, IGFR-1 (Table 2); conditions: Table 2, kinase inhibition class
T18 construct: Kinases are expressed as either kinase domains or full length constructs; made in house
T18 sequence (P08069 31-1367): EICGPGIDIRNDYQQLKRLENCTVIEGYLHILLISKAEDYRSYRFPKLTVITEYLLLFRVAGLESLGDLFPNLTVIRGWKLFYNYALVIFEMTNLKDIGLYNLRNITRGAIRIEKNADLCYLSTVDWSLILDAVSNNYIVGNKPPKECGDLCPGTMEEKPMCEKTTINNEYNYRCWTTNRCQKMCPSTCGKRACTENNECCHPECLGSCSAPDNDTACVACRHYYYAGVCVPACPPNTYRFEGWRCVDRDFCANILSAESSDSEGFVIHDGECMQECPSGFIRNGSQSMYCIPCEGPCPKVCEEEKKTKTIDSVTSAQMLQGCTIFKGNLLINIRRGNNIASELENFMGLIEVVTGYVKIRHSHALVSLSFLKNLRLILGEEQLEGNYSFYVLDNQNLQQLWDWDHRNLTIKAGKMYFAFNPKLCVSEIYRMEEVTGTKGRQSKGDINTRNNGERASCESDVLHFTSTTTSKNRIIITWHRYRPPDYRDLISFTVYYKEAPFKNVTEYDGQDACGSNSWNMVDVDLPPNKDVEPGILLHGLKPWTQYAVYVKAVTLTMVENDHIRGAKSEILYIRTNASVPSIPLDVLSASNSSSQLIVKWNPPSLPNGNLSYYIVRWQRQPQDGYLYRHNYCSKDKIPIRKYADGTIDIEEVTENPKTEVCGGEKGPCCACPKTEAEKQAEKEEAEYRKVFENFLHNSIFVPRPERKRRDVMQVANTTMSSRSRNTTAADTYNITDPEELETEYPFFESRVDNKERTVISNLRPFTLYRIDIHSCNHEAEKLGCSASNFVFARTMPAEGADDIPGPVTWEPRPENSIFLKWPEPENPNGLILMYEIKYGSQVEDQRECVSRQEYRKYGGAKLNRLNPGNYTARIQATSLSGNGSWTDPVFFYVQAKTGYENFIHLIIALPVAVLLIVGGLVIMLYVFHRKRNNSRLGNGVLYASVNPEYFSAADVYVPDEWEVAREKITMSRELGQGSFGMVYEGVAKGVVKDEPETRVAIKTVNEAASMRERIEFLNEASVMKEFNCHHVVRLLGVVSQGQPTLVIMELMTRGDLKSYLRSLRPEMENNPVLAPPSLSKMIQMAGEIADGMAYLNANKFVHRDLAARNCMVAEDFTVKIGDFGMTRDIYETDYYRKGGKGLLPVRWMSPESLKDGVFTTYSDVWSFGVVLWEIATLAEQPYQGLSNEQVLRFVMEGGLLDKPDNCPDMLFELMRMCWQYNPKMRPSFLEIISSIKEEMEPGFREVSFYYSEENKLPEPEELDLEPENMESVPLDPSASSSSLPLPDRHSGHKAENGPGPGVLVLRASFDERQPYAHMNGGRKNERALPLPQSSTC

T7 sequence (P00533 25-1210, species assumed): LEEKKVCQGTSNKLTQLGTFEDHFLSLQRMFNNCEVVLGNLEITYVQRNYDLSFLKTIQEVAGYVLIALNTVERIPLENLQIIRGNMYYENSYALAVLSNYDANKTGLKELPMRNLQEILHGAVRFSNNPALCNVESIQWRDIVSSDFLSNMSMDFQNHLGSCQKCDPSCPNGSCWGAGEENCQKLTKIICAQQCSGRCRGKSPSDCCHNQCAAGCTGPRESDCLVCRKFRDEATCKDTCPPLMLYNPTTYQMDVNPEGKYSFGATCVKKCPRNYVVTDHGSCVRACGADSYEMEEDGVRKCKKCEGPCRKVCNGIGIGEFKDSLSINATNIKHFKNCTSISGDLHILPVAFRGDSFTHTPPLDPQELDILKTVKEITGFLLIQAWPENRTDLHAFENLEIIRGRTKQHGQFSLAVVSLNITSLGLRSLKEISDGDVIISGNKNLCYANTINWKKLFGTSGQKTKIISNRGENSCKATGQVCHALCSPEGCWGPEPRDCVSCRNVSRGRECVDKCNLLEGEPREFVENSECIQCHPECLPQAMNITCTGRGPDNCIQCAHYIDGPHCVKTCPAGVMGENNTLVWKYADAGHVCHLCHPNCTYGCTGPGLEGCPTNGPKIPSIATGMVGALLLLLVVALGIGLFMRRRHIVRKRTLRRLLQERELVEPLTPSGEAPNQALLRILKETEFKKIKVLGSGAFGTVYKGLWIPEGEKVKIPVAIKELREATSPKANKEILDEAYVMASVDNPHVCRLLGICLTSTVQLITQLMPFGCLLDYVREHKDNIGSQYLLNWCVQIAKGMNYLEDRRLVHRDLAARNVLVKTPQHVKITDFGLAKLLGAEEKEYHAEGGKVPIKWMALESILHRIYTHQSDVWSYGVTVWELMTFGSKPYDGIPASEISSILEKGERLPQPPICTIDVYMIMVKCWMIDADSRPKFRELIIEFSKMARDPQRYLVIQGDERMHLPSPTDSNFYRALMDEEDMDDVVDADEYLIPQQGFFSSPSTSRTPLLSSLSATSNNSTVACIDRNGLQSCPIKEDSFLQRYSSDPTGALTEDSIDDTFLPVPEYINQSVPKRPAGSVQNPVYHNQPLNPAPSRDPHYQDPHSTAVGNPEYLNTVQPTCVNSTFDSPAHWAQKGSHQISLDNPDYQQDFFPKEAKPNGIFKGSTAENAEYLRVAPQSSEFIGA
T1 sequence (P06239 whole entry, species assumed, the tested form may be a part): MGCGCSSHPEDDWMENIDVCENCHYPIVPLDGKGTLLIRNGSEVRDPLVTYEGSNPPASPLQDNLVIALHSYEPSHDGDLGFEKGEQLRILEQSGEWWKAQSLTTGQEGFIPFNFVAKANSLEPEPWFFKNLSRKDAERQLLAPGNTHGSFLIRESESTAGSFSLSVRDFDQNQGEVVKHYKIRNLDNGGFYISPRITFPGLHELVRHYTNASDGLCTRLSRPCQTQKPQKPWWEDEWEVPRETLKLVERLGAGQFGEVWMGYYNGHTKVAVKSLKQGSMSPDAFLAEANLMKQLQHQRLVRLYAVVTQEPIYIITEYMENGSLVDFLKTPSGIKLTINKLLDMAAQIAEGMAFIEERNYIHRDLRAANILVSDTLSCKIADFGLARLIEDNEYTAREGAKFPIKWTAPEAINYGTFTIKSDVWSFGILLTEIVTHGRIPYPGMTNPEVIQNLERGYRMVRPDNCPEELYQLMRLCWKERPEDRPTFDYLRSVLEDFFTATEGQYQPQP
T10 sequence (Q02763 23-1124, species assumed): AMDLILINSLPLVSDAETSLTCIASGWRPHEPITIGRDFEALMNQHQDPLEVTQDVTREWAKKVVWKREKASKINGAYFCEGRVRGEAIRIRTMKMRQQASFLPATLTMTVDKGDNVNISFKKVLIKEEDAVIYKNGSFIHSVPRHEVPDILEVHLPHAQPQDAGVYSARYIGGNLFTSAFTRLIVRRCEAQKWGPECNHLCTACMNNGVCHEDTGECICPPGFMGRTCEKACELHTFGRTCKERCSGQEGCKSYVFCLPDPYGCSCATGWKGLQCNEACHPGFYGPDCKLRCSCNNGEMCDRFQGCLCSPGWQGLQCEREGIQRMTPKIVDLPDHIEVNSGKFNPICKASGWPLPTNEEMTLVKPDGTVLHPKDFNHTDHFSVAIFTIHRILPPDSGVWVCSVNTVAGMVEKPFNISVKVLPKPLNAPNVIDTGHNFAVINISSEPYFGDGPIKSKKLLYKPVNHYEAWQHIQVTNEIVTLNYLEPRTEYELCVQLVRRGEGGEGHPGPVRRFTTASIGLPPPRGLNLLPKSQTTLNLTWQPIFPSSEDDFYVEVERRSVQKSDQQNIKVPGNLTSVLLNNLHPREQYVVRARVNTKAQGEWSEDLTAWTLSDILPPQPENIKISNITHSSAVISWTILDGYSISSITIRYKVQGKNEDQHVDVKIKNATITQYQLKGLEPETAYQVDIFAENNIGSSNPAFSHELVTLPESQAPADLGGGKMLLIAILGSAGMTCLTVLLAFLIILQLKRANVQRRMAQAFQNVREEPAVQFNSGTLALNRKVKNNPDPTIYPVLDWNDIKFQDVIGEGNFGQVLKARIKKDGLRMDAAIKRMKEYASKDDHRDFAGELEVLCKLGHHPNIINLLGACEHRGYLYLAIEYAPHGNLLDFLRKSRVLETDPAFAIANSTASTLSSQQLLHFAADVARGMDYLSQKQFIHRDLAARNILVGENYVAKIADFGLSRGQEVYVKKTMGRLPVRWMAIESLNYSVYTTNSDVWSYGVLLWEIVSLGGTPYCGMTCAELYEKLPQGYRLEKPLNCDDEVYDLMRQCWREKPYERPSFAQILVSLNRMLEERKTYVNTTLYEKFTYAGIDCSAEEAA
T12 sequence (Q9Y243 whole entry, the tested form may be a part): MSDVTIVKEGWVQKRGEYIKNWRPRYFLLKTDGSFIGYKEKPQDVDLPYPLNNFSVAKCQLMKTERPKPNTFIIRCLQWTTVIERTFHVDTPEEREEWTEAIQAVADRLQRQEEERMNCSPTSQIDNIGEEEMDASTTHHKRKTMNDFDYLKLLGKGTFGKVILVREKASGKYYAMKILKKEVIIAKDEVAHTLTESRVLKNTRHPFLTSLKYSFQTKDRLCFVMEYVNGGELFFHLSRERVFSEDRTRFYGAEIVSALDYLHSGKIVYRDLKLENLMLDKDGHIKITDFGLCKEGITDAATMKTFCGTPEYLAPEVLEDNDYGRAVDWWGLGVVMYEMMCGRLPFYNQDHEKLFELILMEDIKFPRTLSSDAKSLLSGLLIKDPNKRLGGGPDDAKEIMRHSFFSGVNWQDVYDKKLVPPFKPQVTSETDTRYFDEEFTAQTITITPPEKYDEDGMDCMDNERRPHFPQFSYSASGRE

| Structure (SMILES) | IC50 (Lck; Table 3) | IC50 (Lyn) | IC50 (Src) | IC50 (Zap-70; Table 3) | IC50 (Itk; Table 3) | IC50 (EGFR) | IC50 (Kdr; Table 3) | IC50 (Flt-1) | IC50 (Tek) | IC50 (c-Met) | IC50 (AKT) | IC50 (PDGFRB) | IC50 (Hck-1) | IC50 (ErbB4) | IC50 (Zap-70) | IC50 (Itk) | IC50 (ErbB2) | IC50 (IGFR-1) | IC50 (Lck) | IC50 (Kdr) | further results |
| --- | --- | --- | --- | --- | --- | --- | --- | --- | --- | --- | --- | --- | --- | --- | --- | --- | --- | --- | --- | --- | --- |
| COc1cc(Nc2ncnc(N[C@H](CO)c3ccccc3)n2)cc(OC)c1OC [Compound 425] | > 11.3 µM | < 1.01 µM | 1.01 to 6.04 µM | > 11.3 µM | > 11.3 µM | 1.01 to 6.04 µM | 8.81 to 11.3 µM | > 11.3 µM | > 11.3 µM | > 11.3 µM | > 11.3 µM | 1.01 to 6.04 µM | > 11.3 µM | > 11.3 µM | – | – | – | – | – | – | IC50 (Fyn): 8.81 to 11.3 µM; IC50 (FGFR1): 6.04 to 8.81 µM |
| COc1cc(Nc2ncnc(N3CCCc4cc(C)ccc43)n2)cc(OC)c1OC [Compound 498] | – | < 0.982 µM | < 0.982 µM | – | – | < 0.982 µM | – | – | 8.59 to 11 µM | – | > 11 µM | – | > 11 µM | 0.982 to 5.89 µM | > 11 µM | > 11 µM | 0.982 to 5.89 µM | > 11 µM | – | – | – |
| COc1cc(Nc2ncnc(-n3cccc3)n2)cc(OC)c1OC [Compound 182] | 7.33 to 10.7 µM | – | – | > 13.7 µM | > 13.7 µM | > 13.7 µM | < 1.22 µM | > 13.7 µM | – | 10.7 to 13.7 µM | – | > 13.7 µM | – | – | – | – | – | – | – | – | IC50 (FGFR1): > 13.7 µM |
| COc1cc(Nc2ncnc(Nc3cccc(C(F)(F)F)c3)n2)cc(OC)c1OC [Compound 614] | – | – | – | – | – | < 0.949 µM | – | – | 8.31 to 10.7 µM | > 10.7 µM | > 10.7 µM | 0.949 to 5.7 µM | – | – | > 10.7 µM | > 10.7 µM | 0.949 to 5.7 µM | < 0.949 µM | 0.949 to 5.7 µM | 8.31 to 10.7 µM | – |

The next lines start with results.

| IC50 (Lck; Table 3) | IC50 (Lyn) | IC50 (Src) | IC50 (Zap-70; Table 3) | IC50 (Itk; Table 3) | IC50 (EGFR) | IC50 (Kdr; Table 3) | IC50 (Flt-1) | IC50 (Tek) | IC50 (c-Met) | IC50 (AKT) | IC50 (PDGFRB) | IC50 (Hck-1) | IC50 (ErbB4) | IC50 (Zap-70) | IC50 (Itk) | IC50 (ErbB2) | IC50 (IGFR-1) | IC50 (Lck) | IC50 (Kdr) | Structure (SMILES) | further results |
| --- | --- | --- | --- | --- | --- | --- | --- | --- | --- | --- | --- | --- | --- | --- | --- | --- | --- | --- | --- | --- | --- |
| – | – | – | – | – | 1.01 to 6.07 µM | – | – | 8.85 to 11.4 µM | > 11.4 µM | > 11.4 µM | < 1.01 µM | – | – | > 11.4 µM | > 11.4 µM | 1.01 to 6.07 µM | 1.01 to 6.07 µM | < 1.01 µM | 1.01 to 6.07 µM | COc1cc(Nc2ncnc(Nc3cccc(C(C)=O)c3)n2)cc(OC)c1OC [Compound 697] | – |
| – | – | – | – | – | 0.723 to 4.34 µM | – | – | 0.723 to 4.34 µM | 4.34 to 6.32 µM | > 8.13 µM | < 0.723 µM | – | – | 0.723 to 4.34 µM | 0.723 to 4.34 µM | < 0.723 µM | 0.723 to 4.34 µM | < 0.723 µM | < 0.723 µM | COc1cc(Nc2ncnc(Nc3ccc(NS(=O)(=O)c4ccc([N+](=O)[O-])cc4)cc3)n2)cc(OC)c1OC [Compound 692] | – |
